This experiment concerns the target Dipeptidyl peptidase 4 (Homo sapiens, UniProt P27487). The experiment in a line: Inhibition of human recombinant DPP4 using H-Gly-Pro-AMC as substrate incubated for 30 mins by fluorescence based microplate reader assay.

Dipeptidyl peptidase 4, sequence (P27487 whole entry): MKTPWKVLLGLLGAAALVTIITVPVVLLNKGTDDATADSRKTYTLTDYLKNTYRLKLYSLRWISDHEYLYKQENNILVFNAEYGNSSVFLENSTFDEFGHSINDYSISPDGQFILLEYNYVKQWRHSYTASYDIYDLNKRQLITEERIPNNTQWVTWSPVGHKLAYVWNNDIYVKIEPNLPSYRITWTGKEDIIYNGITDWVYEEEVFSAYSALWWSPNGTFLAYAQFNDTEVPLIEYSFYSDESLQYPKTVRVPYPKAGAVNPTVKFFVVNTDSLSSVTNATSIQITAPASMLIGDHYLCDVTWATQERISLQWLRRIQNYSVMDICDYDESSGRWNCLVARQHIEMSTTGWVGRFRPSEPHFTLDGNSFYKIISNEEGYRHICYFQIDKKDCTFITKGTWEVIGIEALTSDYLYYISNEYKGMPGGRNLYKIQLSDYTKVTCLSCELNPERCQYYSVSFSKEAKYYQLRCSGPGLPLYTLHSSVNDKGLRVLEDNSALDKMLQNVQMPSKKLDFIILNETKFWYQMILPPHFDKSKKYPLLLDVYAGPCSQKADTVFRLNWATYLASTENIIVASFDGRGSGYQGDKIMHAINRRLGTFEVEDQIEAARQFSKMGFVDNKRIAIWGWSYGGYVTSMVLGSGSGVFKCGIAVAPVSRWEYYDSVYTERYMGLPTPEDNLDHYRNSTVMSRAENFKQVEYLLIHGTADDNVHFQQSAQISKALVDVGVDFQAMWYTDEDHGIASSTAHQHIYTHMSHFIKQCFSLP

As a reminder, the IC50 is the point on the concentration scale where inhibition reaches its midpoint. `COc1cc(S(N)(=O)=O)ccc1OCCC(N=[N+]=[N-])C1COc2ccccc2O1` (stereo unspecified): the concentration for half-maximal inhibition (IC50) was found to be 327 µM.

Values taken from ChEMBL document CHEMBL5108062 (J Med Chem, 2022).
